The source of these data is ChEMBL document CHEMBL3045097, “Synthesis and anticonvulsant evaluation of 2-(substituted benzylidene/ethylidene)-N-(substituted phenyl)hydrazinecarboxamide analogues” (Med Chem Res, 2013).

Activity calls are given as the source filed them. The rule behind the calls is not given here.

Data set [1] relates to Mus musculus. Put plainly: Neurotoxicity in Mus musculus (mouse) assessed as motor impairment at 100 mg/kg, ip measured at 4 hr by rotarod test relative to control. The class given is toxicity, organism-based. Set-up: dose 100 mg/kg, route intraperitoneal. Particulars: in vivo. (In general: Falling from the rotarod earlier than controls is read as motor impairment.)
In data set [2] the test system is Mus musculus. Put plainly: Neurotoxicity in Mus musculus (mouse) assessed as motor impairment at 100 mg/kg, ip measured at 2 hr by rotarod test relative to control. The class given is toxicity, organism-based. Set-up: dose 100 mg/kg, route intraperitoneal. The following applies: in vivo.
Data set [3] has as its system Mus musculus. Put plainly: Anticonvulsant activity in Mus musculus (mouse) assessed as protection against 6 Hz psychomotor-induced clonic seizures at 100 mg/kg, ip measured at 2 hr relative to control. The class given is functional. The following applies: route intraperitoneal.
The test system of data set [4] is Mus musculus. Put plainly: Anticonvulsant activity in Mus musculus (mouse) assessed as protection against 6 Hz psychomotor-induced clonic seizures at 100 mg/kg, i.p. measured at 0.25 hr relative to control. The following applies: route intraperitoneal. It counts as functional.
Data set [5] relates to Mus musculus. Put plainly: Anticonvulsant activity in Mus musculus (mouse) assessed as protection against 6 Hz psychomotor-induced clonic seizures at 100 mg/kg, i.p. measured at 1 hr relative to control. The following applies: route intraperitoneal. It counts as functional.
The subject of data set [6] is Mus musculus. Put plainly: Anticonvulsant activity in Mus musculus (mouse) assessed as protection against maximal-electric shock-induced seizures at 30 to 300 mg/kg, ip measured at 4 hr. It counts as functional, organism-based.
In data set [7] the test system is Mus musculus. Put plainly: Neurotoxicity in Mus musculus (mouse) assessed as motor impairment at 100 mg/kg, ip measured at 1 hr by rotarod test relative to control. It counts as toxicity, organism-based. Details: dose 100 mg/kg, route intraperitoneal. Particulars: in vivo.
The test system of data set [8] is Mus musculus. Put plainly: Anticonvulsant activity in Mus musculus (mouse) assessed as protection against 6 Hz psychomotor-induced clonic seizures at 100 mg/kg, i.p. measured at 0.5 hr relative to control. The class given is functional. The following applies: route intraperitoneal.
The subject of data set [9] is Mus musculus. Put plainly: Neurotoxicity in Mus musculus (mouse) assessed as motor impairment at 30 to 300 mg/kg, ip measured at 0.5 hr by rotarod test. The class given is toxicity, organism-based. Set-up: dose 30-300 mg/kg, route intraperitoneal. The following applies: in vivo.
The test system of data set [10] is Mus musculus. Put plainly: Anticonvulsant activity in i.p. dosed Mus musculus (mouse) assessed as protection against maximal-electric shock-induced seizures measured at 0.5 hr. The class given is functional. The following applies: ip, read-out: MED.
For data set [11], the system named is Mus musculus. Put plainly: Neurotoxicity in i.p. dosed Mus musculus (mouse) assessed as motor impairment measured at 4 hr by rotarod test. The following applies: in vivo, ip. The class given is toxicity, organism-based.
Data set [12] concerns Mus musculus. Put plainly: Neurotoxicity in Mus musculus (mouse) assessed as motor impairment at 100 mg/kg, ip measured at 0.5 hr by rotarod test relative to control. Details: dose 100 mg/kg, route intraperitoneal. The following applies: in vivo. It counts as toxicity, organism-based.
Data set [13] concerns Mus musculus. Put plainly: Anticonvulsant activity in Mus musculus (mouse) assessed as protection against scMET-induced clonic seizures at 30 to 300 mg/kg, ip measured at 0.5 to 4 hr. It counts as functional, organism-based.
Data set [14] relates to Mus musculus. Put plainly: Neurotoxicity in Mus musculus (mouse) assessed as motor impairment at 100 mg/kg, ip measured at 0.25 hr by rotarod test relative to control. Particulars: in vivo. Set-up: dose 100 mg/kg, route intraperitoneal. It counts as toxicity, organism-based.
For data set [15], the system named is Mus musculus. Put plainly: Anticonvulsant activity in Mus musculus (mouse) assessed as protection against 6 Hz psychomotor-induced clonic seizures at 100 mg/kg, i.p. measured at 4 hr relative to control. The class given is functional.
Data set [16] concerns Mus musculus. Put plainly: Anticonvulsant activity in i.p. dosed Mus musculus (mouse) assessed as protection against maximal-electric shock-induced seizures measured at 4 hr. The following applies: ip, read-out: MED. The class given is functional.
The test system of data set [17] is Mus musculus. Put plainly: Neurotoxicity in i.p. dosed Mus musculus (mouse) assessed as motor impairment measured at 0.5 hr by rotarod test. It counts as toxicity, organism-based. The following applies: in vivo, ip.

As to `Cc1ccc(NC(=O)NN)cc1`, the Activity with Mus musculus [1] is on record as 50%; in the data set on Mus musculus [2] it was 25%; in the data set on Mus musculus [3], 25%; with Mus musculus [4], 100%; in the data set with Mus musculus [5] it was 50%; in the data set with Mus musculus [7], “Non-toxic”. In addition, the Activity with Mus musculus [8] is on record as 50%; with Mus musculus [9], “Non-toxic”; in the data set on Mus musculus [12] it was “Non-toxic”; in the data set on Mus musculus [14] it was “Non-toxic”. Further, the result in the data set with Mus musculus [6], in the data set on Mus musculus [13] and with Mus musculus [15] was inactive. Further, the minimal effective dose with Mus musculus [10] was 300 mg/kg. The MTC in the data set on Mus musculus [11] was found to be 300 mg/kg.

`O=C1NC(=O)C(c2ccccc2)(c2ccccc2)N1` [PHENYTOIN]: the minimal effective dose in the data set on Mus musculus [16] and with Mus musculus [10] was 30 mg/kg throughout. The MTC in the data set with Mus musculus [17] and in the data set with Mus musculus [11] was 100 mg/kg in each case. Further, the outcome with Mus musculus [13] was inactive.

On to `NC(=O)N1c2ccccc2C=Cc2ccccc21` [CARBAMAZEPINE], for which the minimal effective dose was 100 mg/kg in the data set with Mus musculus [16] and 30 mg/kg in the data set with Mus musculus [10]. Besides, the MTC with Mus musculus [17] is 100 mg/kg; in the data set with Mus musculus [11] it was 300 mg/kg. The outcome with Mus musculus [13] was inactive.
